The structures appear in SMILES notation.

One experiment relates to KM12-luc cells. Put plainly: Cell proliferation and growth inhibition assay (CCK-8) in KM12-luc. It counts as cell-based. As to conditions: KM12-Luc, 72 h, KM12-luc cells, treated with test compounds for 72 hrs, CCK-8 viability; read-out: NTRK IC50 in KM12-luc. The procedure:
MV-4-11 and H1975 cells were obtained from the American Type Culture Collection and KM12-luc cells were obtained from JCRB Cell Bank. All cell lines were maintained at 37° C. with 5% C02, in media supplemented with 10% fetal bovine serum and penicillin (100 units/mL) and streptomycin (100 μg/mL). MV-4-11 cells were maintained in Iscove's Modified Dubecco's Medium, H1975 cells were cultured with RPMI 1640 media, and KM12-luc cells were maintained in Dulbecco's Modification of Eagle's Medium. CCK-8 reagent was obtained from Yeasen. Cell proliferation was assessed by CCK-8 assay (Yeasen) per the manufacturer's instructions. […] Cell viability was assayed by incubating the cells with CCK-8 reagent for 1-4 hrs. Absorbance was measured at OD450 using the Beckman DTX880. The data was calculated using GraphPad Prism version 6.01. The IC50 values were fitted using a non-linear regression model with a sigmoidal dose response.
Broadly, the IC50 is the concentration at which inhibition is half-maximal. As to `CC(=O)Nc1cc(Nc2ncc(F)c(-c3cn(C)c4ccccc34)n2)ccc1N(C)CCN(C)C` [Compound 261, N-(2-((2-(dimethylamino)ethyl)(methyl)amino)-5-((5-fluoro-4-(1-methyl-1H-indol-3-yl)pyrimidin-2-yl)amino)phenyl)acetamide], the IC50 worked out at 509 nM. The same measure, in the same setting: as for `CCN(CCN(C)C)c1ccc(Nc2nc(-c3cn(C)c4ccccc34)c3occc3n2)cc1NC(C)=O` [Compound 256c, N-(2-((2-(dimethylamino)ethyl)(ethyl)amino)-5-((4-(1-methyl-1H-indol-3-yl)furo[3,2-d]pyrimidin-2-yl)amino)phenyl)acetamide], the figure is 587 nM. The same measure, in the same setting: as for `CC(=O)Nc1cc(Nc2ncc(C(F)(F)F)c(-c3cn(C)c4c(F)cccc34)n2)ccc1N(CCN(C)C)C(C)=O` [Compound 350, N-(2-acetamido-4-((4-(7-fluoro-1-methyl-1H-indol-3-yl)-5-(trifluoromethyl)pyrimidin-2-yl)amino)phenyl)-N-(2-(dimethylamino)ethyl)acetamide], the figure is 126 nM; as for `COc1cccc2c(-c3nc(Nc4ccc(N5CC[C@H](N(C)C)C5)c(N)c4)ncc3Cl)cn(C)c12` [Compound S-439, (S)—N^1-(5-chloro-4-(7-methoxy-1-methyl-1H-indol-3-yl)pyrimidin-2-yl)-4-(3-(dimethylamino)pyrrolidin-1-yl)benzene-1,3-diamine], 150 nM; as for `Cc1cccc2c(-c3nc(Nc4ccc(N(C)CCN(C)C)c(N)c4)ncc3C(F)(F)F)cn(C)c12` [Compound 369, N^4-(4-(1,7-dimethyl-1H-indol-3-yl)-5-(trifluoromethyl)pyrimidin-2-yl)-N^1-(2-(dimethylamino)ethyl)-N^1-methylbenzene-1,2,4-triamine], 27.6 nM. The same measure, in the same setting: as for `CCN(CCN(C)C)c1ccc(Nc2nc(-c3cn(C)c4ccccc34)c3cc[nH]c3n2)cc1NC` [Compound 197, N^1-(2-(dimethylamino)ethyl)-N^1-ethyl-N^2-methyl-N^4-(4-(1-methyl-1H-indol-3-yl)-7H-pyrrolo[2,3-d]pyrimidin-2-yl)benzene-1,2,4-triamine], the figure is 376 nM; as for `CC(=O)Nc1cc(Nc2nc(-c3cn(C)c4cccc(F)c34)c3cc[nH]c3n2)ccc1N(C)CCN(C)C` [Compound 218, N-(2-((2-(dimethylamino)ethyl)(methyl)amino)-5-((4-(4-fluoro-1-methyl-1H-indol-3-yl)-7H-pyrrolo[2,3-d]pyrimidin-2-yl)amino)phenyl)acetamide], 103 nM; as for `CN(C)CCN(C)c1ccc(Nc2nc(-c3cn(C)c4ccccc34)c3cc[nH]c3n2)cc1NS(C)(=O)=O` [Compound 205c, N-(2-((2-(dimethylamino)ethyl)(methyl)amino)-5-((4-(1-methyl-1H-indol-3-yl)-7H-pyrrolo[2,3-d]pyrimidin-2-yl)amino)phenyl)methanesulfonamide], 329 nM. For the compound `CC(=O)Nc1cc(Nc2ncc(C(F)(F)F)c(-c3c[nH]c4ccccc34)n2)ccc1OCCN(C)C` [Compound 304, N-(5-((4-(1H-indol-3-yl)-5-(trifluoromethyl)pyrimidin-2-yl)amino)-2-(2-(dimethylamino)ethoxy)phenyl)acetamide], the half-maximal inhibitory concentration (IC50) amounted to 75.1 nM. As to `CNc1cc(Nc2ncc(F)c(-c3c[nH]c4ccccc34)n2)ccc1N(C)CCN(C)C` [Compound 260, N^1-(2-(dimethylamino)ethyl)-N^4-(5-fluoro-4-(1H-indol-3-yl)pyrimidin-2-yl)-N^1,N^2-dimethylbenzene-1,2,4-triamine], the IC50 turned out to be 145 nM. The same measure, in the same setting: as for `COc1cc(N2CCN(C(C)=O)CC2)ccc1Nc1nc(Nc2cccc(NC(C)=O)c2)ncc1C(F)(F)F` [Compound 173, N-(3-((4-((4-(4-acetylpiperazin-1-yl)-2-methoxyphenyl)amino)-5-(trifluoromethyl)pyrimidin-2-yl)amino)phenyl)acetamide], the figure is 85.7 nM; as for `Cc1nc2ccc(Nc3ncc(Cl)c(-c4c[nH]c5ccccc45)n3)cc2[nH]1` [Compound 394b, N-(5-chloro-4-(1H-indol-3-yl)pyrimidin-2-yl)-2-methyl-1H-benzo[d]imidazol-6-amine], 131 nM; as for `CCN(CCN(C)C)c1ccc(Nc2nc(-c3c[nH]c4ccccc34)ncc2C(F)(F)F)cc1NC(C)=O` [Compound 300b, N-(5-((2-(1H-indol-3-yl)-5-(trifluoromethyl)pyrimidin-4-yl)amino)-2-((2-(dimethylamino)ethyl)(ethyl)amino)phenyl)acetamide], 3680 nM. On the same count and under the same terms, to `Cc1nc2cc(Nc3ncc(Cl)c(-c4cn(C)c5ccccc45)n3)ccc2n1CCN(C)C` [Compound 400b, N-(5-chloro-4-(1-methyl-1H-indol-3-yl)pyrimidin-2-yl)-1-(2-(dimethylamino)ethyl)-2-methyl-1H-benzo[d]imidazol-5-amine] belongs 71.5 nM; to `CC(=O)Nc1cc(Nc2nc(-c3cn(C)c4ccccc34)c3cc[nH]c3n2)cc(F)c1N(C)CCN(C)C` [Compound 190, N-(2-((2-(dimethylamino)ethyl)(methyl)amino)-3-fluoro-5-((4-(1-methyl-1H-indol-3-yl)-7H-pyrrolo[2,3-d]pyrimidin-2-yl)amino)phenyl)acetamide], 60.4 nM; to `CC(=O)Nc1cc(Nc2nc(-c3c[nH]c4cc(F)ccc34)ncc2C(F)(F)F)ccc1N(C)CCN(C)C` [Compound 328b, N-(2-((2-(dimethylamino)ethyl)(methyl)amino)-5-((2-(6-fluoro-1H-indol-3-yl)-5-(trifluoromethyl)pyrimidin-4-yl)amino)phenyl)acetamide], 2420 nM. The same measure, in the same setting: to `CC(=O)Nc1cc(Nc2nc(-c3c[nH]c4ccccc34)c3cc[nH]c3n2)ccc1N(C)CCN(C)C` [Compound 189, N-(5-((4-(1H-indol-3-yl)-7H-pyrrolo[2,3-d]pyrimidin-2-yl)amino)-2-((2-(dimethylamino)ethyl)(methyl)amino)phenyl)acetamide] belongs 28.7 nM; to `CC(=O)Nc1cc(Nc2ncc(Cl)c(-c3cn(C)c4c(C)cccc34)n2)ccc1N(C)CCN(C)C` [Compound 429, N-(5-((5-chloro-4-(1,7-dimethyl-1H-indol-3-yl)pyrimidin-2-yl)amino)-2-((2-(dimethylamino)ethyl)(methyl)amino)phenyl)acetamide], 475 nM. In the case of `COc1cccc2c(-c3nc(Nc4ccc(N(C)CCN(C)C)c(N)c4)ncc3Cl)cn(C)c12` [Compound 437, N^4-(5-chloro-4-(7-methoxy-1-methyl-H-indol-3-yl)pyrimidin-2-yl)-N^1-(2-(dimethylamino)ethyl)-N^1-methylbenzene-1,2,4-triamine], the IC50 worked out at 109 nM. The same measure, in the same setting: as for `CCC(=O)Nc1cccc(Nc2ncc(Cl)c(Nc3ccc(C4CCCN(C(C)=O)C4)cc3OC)n2)c1` (stereo not shown) [Compound 165, N-(3-((4-((4-(1-acetylpiperidin-3-yl)-2-methoxyphenyl)amino)-5-chloropyrimidin-2-yl)amino)phenyl)propionamide], the figure is 171 nM. Still for that read-out and setting: as for `COc1cnc(Nc2ccc(OCCN(C)C)c(N)c2)nc1-c1cn(C)c2c(F)cccc12` [Compound 283, 4-(2-(dimethylamino)ethoxy)-N^1-(4-(7-fluoro-1-methyl-1H-indol-3-yl)-5-methoxypyrimidin-2-yl)benzene-1,3-diamine], the figure is 86.4 nM. For `CN(C)CCN(C)c1ccc(Nc2ncc(C(F)(F)F)c(-c3c[nH]c4ccc(F)cc34)n2)cc1N` [Compound 322, N^1-(2-(dimethylamino)ethyl)-N^4-(4-(5-fluoro-1H-indol-3-yl)-5-(trifluoromethyl)pyrimidin-2-yl)-N^1-methylbenzene-1,2,4-triamine], the IC50 came to 8.3 nM. Same read-out and setting: to `CC(=O)Nc1cc(Nc2ncc(C(F)(F)F)c(-c3cn(C)c4ccc(F)cc34)n2)ccc1N(C)CCN(C)C` [Compound 325, N-(2-((2-(dimethylamino)ethyl)(methyl)amino)-5-((4-(5-fluoro-1-methyl-1H-indol-3-yl)-5-(trifluoromethyl)pyrimidin-2-yl)amino)phenyl)acetamide] belongs 39.4 nM; to `CCN(CCN(C)C)c1ccc(Nc2ncc(C(F)(F)F)c(-c3c[nH]c4ccc(F)cc34)n2)cc1NC(C)=O` [Compound 323, N-(2-((2-(dimethylamino)ethyl)(ethyl)amino)-5-((4-(5-fluoro-1H-indol-3-yl)-5-(trifluoromethyl)pyrimidin-2-yl)amino)phenyl)acetamide], 18.9 nM; to `CC(=O)Nc1cc(Nc2ncc(C(F)(F)F)c(-c3cn(C)c4ccccc34)n2)ccc1OCCN(C)C` [Compound 315, N-(2-(2-(dimethylamino)ethoxy)-5-((4-(1-methyl-1H-indol-3-yl)-5-(trifluoromethyl)pyrimidin-2-yl)amino)phenyl)acetamide], 85.1 nM.

Turning to `Cc1cccc2c(-c3nc(Nc4ccc(N5CC[C@H](N(C)C)C5)c(N)c4)ncc3C(F)(F)F)c[nH]c12` [Compound S-367, (S)-4-(3-(dimethylamino)pyrrolidin-1-yl)-N^1-(4-(7-methyl-1H-indol-3-yl)-5-(trifluoromethyl)pyrimidin-2-yl)benzene-1,3-diamine], the IC50 worked out at 4.6 nM.

As for `CC(=O)Nc1cc(Nc2ncc(Cl)c(-c3cn(C)c4ccccc34)n2)ccc1NC(=O)CN(C)C` [Compound 407, N-(2-acetamido-4-((5-chloro-4-(1-methyl-1H-indol-3-yl)pyrimidin-2-yl)amino)phenyl)-2-(dimethylamino)acetamide], the IC50 stood at 44.4 nM.

The experiment is the same for the next values; noted with them: KM12-luc cells, treated with test compounds for 72 hrs, CCK-8 viability; read-out: NTRK IC50 in KM12-luc.
In the case of `CC(=O)Nc1cc(Nc2ncc(Cl)c(-c3c[nH]c4ccccc34)n2)ccc1N(C)CCN(C)C` [Compound 440], the IC50 was 7 nM.

These data come from patent US20250136576A1, “Heterocyclic Compounds and Uses Thereof” (ACEA Therapeutics, Inc., priority 2021, published 2025).
